Consider 24 compounds from ChEMBL document CHEMBL4351028, “Benzoyl indoles with metabolic stability as reversal agents for ABCG2-mediated multidrug resistance” (Eur J Med Chem, 2019).

A short description of data set [1]: Cytotoxicity against human NCI-H460/MX20 cells assessed as concentration that causes inhibition of cell viability by <=20% incubated for 24 hrs by MTT assay. The class given is cell-based.
For data set [2], the system named is NCI-H460. Nature of the data set: Cytotoxicity against human NCI-H460 cells assessed as inhibition of cell viability incubated for 2 hrs by MTT assay. The class given is cell-based. The conditions noted are these: NCI-H460, 2 h.
Data set [3] deals with T1, Broad substrate specificity ATP-binding cassette transporter ABCG2 (Homo sapiens, UniProt Q9UNQ0).
T1 sequence (Q9UNQ0 whole entry): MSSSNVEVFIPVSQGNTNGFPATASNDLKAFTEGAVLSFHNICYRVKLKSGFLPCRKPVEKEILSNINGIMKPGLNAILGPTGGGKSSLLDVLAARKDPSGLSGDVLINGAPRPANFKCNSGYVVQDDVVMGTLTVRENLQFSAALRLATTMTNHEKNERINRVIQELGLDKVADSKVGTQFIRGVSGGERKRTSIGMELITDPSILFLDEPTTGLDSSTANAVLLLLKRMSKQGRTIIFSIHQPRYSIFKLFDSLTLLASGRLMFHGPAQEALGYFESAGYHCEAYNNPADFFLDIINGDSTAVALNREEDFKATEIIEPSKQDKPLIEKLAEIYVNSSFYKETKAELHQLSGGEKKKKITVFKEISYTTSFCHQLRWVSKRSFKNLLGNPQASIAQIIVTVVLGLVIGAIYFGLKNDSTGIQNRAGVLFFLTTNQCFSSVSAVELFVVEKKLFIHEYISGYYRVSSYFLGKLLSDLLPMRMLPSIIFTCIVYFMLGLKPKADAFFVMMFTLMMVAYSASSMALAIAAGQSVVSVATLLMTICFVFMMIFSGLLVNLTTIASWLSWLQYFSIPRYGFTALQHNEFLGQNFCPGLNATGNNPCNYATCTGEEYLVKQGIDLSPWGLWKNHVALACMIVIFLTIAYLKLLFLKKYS
Nature of the data set: Reversal of ABCG2-mediated multidrug resistance in human NCI-H460/MX20 cells assessed as potentiation of mitoxantrone-induced cytotoxicity by measuring inhibition of cell proliferation at 1 uM pretreated for 2 hrs followed by mitoxantrone addition and measured after 44 hrs by MTT assay (reference value: 24 +/- 3%). The class given is cell-based. A general note: Tetrazolium dyes change colour on reduction, which living cells bring about.

In data set [4] the test system is NCI-H460. Put plainly: Cytotoxicity against human NCI-H460 cells assessed as concentration that causes inhibition of cell viability by <=20% incubated for 24 hrs by MTT assay. Particulars: nci-h460, 24 h. The class given is cell-based.
A short description of data set [5]: Cytotoxicity against human NCI-H460/MX20 cells assessed as inhibition of cell viability incubated for 2 hrs by MTT assay. It is filed as cell-based. Particulars: NCI-H460/MX20, 2 h.
Data set [6] deals with T1, Broad substrate specificity ATP-binding cassette transporter ABCG2. Nature of the data set: Reversal of ABCG2-mediated multidrug resistance in human NCI-H460/MX20 cells assessed as potentiation of mitoxantrone-induced cytotoxicity by measuring inhibition of cell proliferation at 25 uM pretreated for 2 hrs followed by mitoxantrone addition and measured after 44 hrs by MTT assay (reference value: 24 +/- 3%). Particulars: for inhibition (INH): 25 µM. It is filed as cell-based.

Data set [7] has as its system HEK293. Put plainly: Reversal of ABCG2 482-G2 mutant (unknown origin) expressed in HEK293 cells-mediated multidrug resistance assessed as potentiation of mitoxantrone-induced cytotoxicity at 5 uM pretreated for 2 hrs followed by mitoxantrone addition and measured after 44 hrs by MTT assay. It is filed as cell-based. The conditions noted are these: Homo sapiens.
Data set [8] has as its system HEK293. Put plainly: Reversal of ABCG2 482-T7 mutant (unknown origin) expressed in HEK293 cells-mediated multidrug resistance assessed as potentiation of mitoxantrone-induced cytotoxicity at 5 uM pretreated for 2 hrs followed by mitoxantrone addition and measured after 44 hrs by MTT assay. Particulars: Homo sapiens. The class given is cell-based.
Data set [9] in a line: Metabolic stability in human liver microsomes assessed as compound remaining at 100 uM incubated for 1 hr by HPLC analysis. Particulars: read-out: Stability. It is filed as ADME, Microsome. In general terms: Liver microsomes are a subcellular fraction often used to study metabolism.
Data set [10] has as its target T1, Broad substrate specificity ATP-binding cassette transporter ABCG2. Nature of the data set: Reversal of ABCG2-mediated multidrug resistance in human NCI-H460/MX20 cells assessed as potentiation of mitoxantrone-induced cytotoxicity by measuring inhibition of cell proliferation pretreated for 2 hrs followed by mitoxantrone addition and measured after 44 hrs by MTT assay. It is filed as cell-based.

The target is the same in data set [11]. Nature of the data set: Reversal of ABCG2-mediated multidrug resistance in human NCI-H460/MX20 cells assessed as potentiation of mitoxantrone-induced cytotoxicity by measuring inhibition of cell proliferation at 10 uM pretreated for 2 hrs followed by mitoxantrone addition and measured after 44 hrs by MTT assay (reference value: 24 +/- 3%). It is filed as cell-based. The conditions noted are these: for inhibition (INH): 10 µM.

Active and inactive are the calls of the source. The calls are words filed in the database; no cut-off is given here.

As usually defined, the IC50 is the concentration that gives 50% inhibition. In the case of `COc1cc(C(=O)c2c[nH]c3cccc(OC)c23)cc(OC)c1OC`, the Activity in data set [1] and in [4] was 1 µM throughout. Also, the IC50 in data set [2] (read-out: IC50) and in data set [5] was > 100 µM each time. Also, the “inhibition (INH)” value in data set [3] is on record as “Active”.

As to `O=C(c1ccc(O)cc1O)c1c[nH]c2ccc(O)cc12`, the Activity in [1] and in data set [4] was 25 µM each time. In addition, the IC50 in data set [2] (read-out: IC50) and in [5] was > 100 µM throughout. Moreover, the “inhibition (INH)” value in [6] is “Active”.

As to `O=C(c1cccc(O)c1)c1c[nH]c2ccc(O)cc12`, the Activity in [1] and in data set [4] was 25 µM throughout. Besides, the IC50 in data set [2] (read-out: IC50) and in data set [5] was > 100 µM in each case.

`COc1ccc2c3c([nH]c2c1)[C@H](CC(C)C)N1C(=O)[C@H](CCC(=O)OC(C)(C)C)NC(=O)[C@@H]1C3`: the outcome in [7] and in [8] was Active. In addition, the remaining at 1 h, 100 µM in data set [9] amounted to 23%.

On to `COc1ccc2[nH]cc(C(=O)c3cc(OC)c(OC)c(OC)c3)c2c1`, for which the Activity in data set [1] and in data set [4] was 1 µM each time. For the same compound, the results for the IC50 in data set [2] (read-out: IC50) and in [5] were 4.9 µM and 5.82 µM, respectively. Moreover, in data set [3], the “inhibition (INH)” value is given as “Active”.

Broadly, the inhibition is the share of the control response that was lost under treatment. On to `COc1ccc(C(=O)c2ccc3[nH]cc(C(=O)c4ccc(OC)cc4OC)c3c2OC)c(OC)c1`, for which the Activity in [1] and in [4] was 25 µM in each case. Moreover, the IC50 was > 100 µM in [2] (read-out: IC50) and 68.7 µM in data set [5]. Further, the inhibition at 25 µM in data set [6] was > 87%. Besides, the “inhibition (INH)” value in data set [10] was “Dose-dependent effect”.

`O=C(c1ccc(O)cc1)c1c[nH]c2ccc(O)cc12`: the Activity in data set [1] and in [4] was 25 µM throughout. For the same compound, the IC50 in data set [2] (read-out: IC50) and in [5] was > 100 µM each time. In data set [6], the “inhibition (INH)” value is on record as “Active”.

Regarding `O=C(c1cc(O)c(O)c(O)c1)c1c[nH]c2ccc(O)cc12`, the Activity in [1] and in data set [4] was 25 µM each time. Also, the IC50 in [2] (read-out: IC50) and in [5] was > 100 µM throughout.

`COc1ccc2[nH]cc(C(=O)c3c(OC)cccc3OC)c2c1`: the Activity in [1] and in [4] was 1 µM throughout. Further, the IC50 in data set [2] (read-out: IC50) and in [5] was > 100 µM in each case. Further, the “inhibition (INH)” value in [3] was “Active”.

`COc1ccc(C(=O)c2c(OC)ccc3cc(OC)ccc23)c(OC)c1`: the Activity in data set [1] and in data set [4] was 10 µM each time. Moreover, the results for the IC50 in data set [2] (read-out: IC50) and in data set [5] were 86.2 µM and 84 µM, respectively. The “inhibition (INH)” value in data set [6] was “Not Active”.

Turning to `O=C(c1c(O)cccc1O)c1c[nH]c2ccc(O)cc12`, the Activity in [1] and in data set [4] was 10 µM each time. For the same compound, the IC50 in data set [2] (read-out: IC50) and in [5] was > 100 µM throughout.

As for `COc1ccc(C(=O)c2c[nH]c3cccc(OC)c23)c(OC)c1`, the Activity in [1] and in data set [4] was 25 µM in each case. The IC50 in data set [2] (read-out: IC50) and in [5] was > 100 µM throughout. Besides, the “inhibition (INH)” value in data set [6] is “Active”.

As to `COc1ccc2[nH]cc(C(=O)c3ccccc3OC)c2c1`, the Activity in [1] and in data set [4] was 1 µM each time. Further, the 50% inhibitory concentration (IC50) in [2] (read-out: IC50) turned out to be 46.2 µM; in [5], 61.9 µM. In addition, the “inhibition (INH)” value in data set [3] is “Active”.

`COc1cccc(C(=O)c2c[nH]c3ccc(OC)cc23)c1`: the Activity in [1] and in data set [4] was 10 µM in each case. The IC50 in data set [2] (read-out: IC50) was > 100 µM; in [5] it was 53.2 µM. Moreover, in data set [11], the inhibition at 10 µM was > 87%. The “inhibition (INH)” value in [10] is reported as “Dose-dependent effect”.

On to `COc1ccc(C(=O)c2c[nH]c3c(OC)cccc23)c(OC)c1`, for which the Activity in [1] and in data set [4] was 10 µM each time. Also, the IC50 in data set [2] (read-out: IC50) and in data set [5] was > 100 µM each time. Besides, the “inhibition (INH)” value in [11] is recorded as “Active”.

As for `COc1ccc(C(=O)c2c[nH]c3cccc(OC)c23)cc1`, the Activity in [1] and in data set [4] was 10 µM in each case. Besides, the IC50 in data set [2] (read-out: IC50) and in data set [5] was > 100 µM in each case. In addition, the “inhibition (INH)” value in data set [11] is reported as “Active”.

On to `O=C(c1ccc(O)cc1O)c1c[nH]c2c(O)cccc12`, for which the Activity in data set [1] and in [4] was 10 µM each time. Besides, the IC50 in data set [2] (read-out: IC50) and in data set [5] was > 100 µM throughout.

On to `O=C(c1cc(O)c(O)c(O)c1)c1c[nH]c2cccc(O)c12`, for which the Activity in data set [1] and in data set [4] was 25 µM throughout. Also, the IC50 in data set [2] (read-out: IC50) and in data set [5] was > 100 µM each time.

Turning to `O=C(c1ccccc1O)c1c[nH]c2ccc(O)cc12`, the Activity in [1] and in [4] was 25 µM throughout. For the same compound, the IC50 in [2] (read-out: IC50) and in [5] was > 100 µM throughout. For the same compound, the inhibition at 25 µM in [6] was > 87%. For the same compound, in data set [10], the “inhibition (INH)” value is reported as “Dose-dependent effect”.

Turning to `COc1ccc(C(=O)c2c[nH]c3ccc(OC)cc23)c(OC)c1`, the Activity in data set [1] and in data set [4] was 25 µM throughout. Further, the IC50 in data set [2] (read-out: IC50) and in data set [5] was > 100 µM in each case. In addition, the “inhibition (INH)” value in data set [6] is “Active”.

For the compound `O=C(c1ccc(O)cc1O)c1c[nH]c2cccc(O)c12`, the Activity in data set [1] and in data set [4] was 25 µM throughout. The IC50 in data set [2] (read-out: IC50) and in data set [5] was > 100 µM each time. For the same compound, the inhibition at 25 µM in data set [6] is > 87%. Moreover, in data set [10], the “inhibition (INH)” value is “Dose-dependent effect”.

With `O=C(c1ccc(O)cc1)c1c[nH]c2cccc(O)c12`, the Activity in data set [1] and in data set [4] was 25 µM in each case. Besides, the half-maximal inhibitory concentration (IC50) in data set [2] (read-out: IC50) and in data set [5] was > 100 µM throughout. Also, the inhibition at 25 µM in data set [6] was > 87%. In addition, the “inhibition (INH)” value in data set [10] is on record as “Dose-dependent effect”.

With `O=C1c2c(O)ccc(O)c2C(=O)c2c(NCCNCCO)ccc(NCCNCCO)c21` [MITOXANTRONE], the IC50 in data set [2] turned out to be 0.36 µM; in data set [5] it was 40.6 µM.

Consider `O=C(c1ccc(O)cc1)c1ccc2[nH]cc(C(=O)c3ccc(O)cc3)c2c1O`, for which the Activity in [1] and in data set [4] was 25 µM in each case. Also, the IC50 in data set [2] (read-out: IC50) and in data set [5] was > 100 µM each time.
